Source: publication PMC2362906, “Effects of new 17α-hydroxylase/C17,20-lyase inhibitors on LNCaP prostate cancer cell growth in vitro and in vivo” (British Journal of Cancer, 1999)
“Also recorded” adds a separate entry of the source.

Columns and labels:
[1] = biological target: human prostatic 5-reductase; parameters: method as in Njar et al, 1998; details: human prostatic microsomes; reported previously; ref Njar et al, 1998; cited from earlier work
LNCaP cells [2] = experiment: LNCaP cell growth in steroid-free medium; assay type: cell-based, human; details: steroid-free medium
From the text: Prostate cancer is the most common malignancy and the second leading cause of cancer-related deaths among men in the US and the UK (Shibata et al, 1998). […] Steroidal 17-hydroxylase/C17,20 -lyase (P450c17) (EC 1.14.99.0) was selected as the target enzyme for inhibition, as this is a key regulatory enzyme of androgen synthesis. P450c17 catal- yses two sequential reactions in the steroid biosynthetic pathway and converts pregnenolone and progesterone to the C-19 andro- gens, dehydroepiandrosterone and androstenedione respectively. This enzyme has an identical amino acid sequence in testicular and adrenal tissues (Chung et al, 1987). […] In order to evaluate the effectiveness of these inhibitors we developed a multi-step system, which utilized the LNCaP human prostate cancer cell line. LNCaP cells remain the only androgen receptor (AR)-positive prostate cancer cell line, that can be readily grown in tissue culture (Horoszewicz et al, 1983). These cells respond to androgens with increased cell proliferation and elevated expression of prostate specific antigen (PSA) (Berns et al, 1993). LNCaP cells at early passages are not only androgen-responsive, but also androgen- dependent (Pousette et al, 1997). This is similar to the situation in most tumours of prostatic cancer patients, which are initially highly responsive and dependent on androgens. […] Therefore, we employed LNCaP cells as a model for evaluating the effectiveness of our new inhibitors of androgen synthesis. In this study the compounds selected for evaluation were two groups of azolyl steroids. […] Here we report on the application of LNCaP-CYP17-transfected cells for determining the inhibitory potencies of the new compounds against the P450c17 enzyme. […] We designed and evaluated two groups of azolyl steroids: 5-non-competitive inhibitors (5NCIs), VN/63-1, VN/85-1, VN/87-1 and their corresponding 4 derivatives (4NCIs), VN/107-1, VN/108-1 and VN/109-1. The human P450c17 gene was transfected into LNCaP human prostate cancer cells, and the resultant LNCaP- CYP17 cells were utilized to evaluate the inhibitory potency of the new azolyl steroids. […] We further evaluated our inhibitors in male severe combined immuno- deficient mice bearing LNCaP tumour xenografts. […] We also utilized wild-type LNCaP prostatic carcinoma cells for evaluating the direct effects of new azolyl steroids on proliferation of these cells in vitro and in vivo. MATERIALS AND METHODS Materials The human prostate cancer cell line LNCaP was obtained from the American Type Culture Collection (Rockville, MD, USA). RPMI- 1640 medium, trypsin-EDTA (0.25%/0.02%), penicillin/strepto- mycin (P/S), geniticin (G418), and LipofectAMINE were from Gibco-BRL (Grand Island, NY, USA). […]

serum testosterone = experiment: Serum testosterone (RIA) in SCID mice; assay type: in vivo, male SCID mice; details: Table 2, first experiment, 28 days of treatment, 50 mg kg-1 day-1; control 1.043
From the text: (§1) Prostate cancer is the most common malignancy and the second leading cause of cancer-related deaths among men in the US and the UK (Shibata et al, 1998). […] Steroidal 17-hydroxylase/C17,20 -lyase (P450c17) (EC 1.14.99.0) was selected as the target enzyme for inhibition, as this is a key regulatory enzyme of androgen synthesis. P450c17 catal- yses two sequential reactions in the steroid biosynthetic pathway and converts pregnenolone and progesterone to the C-19 andro- gens, dehydroepiandrosterone and androstenedione respectively. This enzyme has an identical amino acid sequence in testicular and adrenal tissues (Chung et al, 1987). […] In order to evaluate the effectiveness of these inhibitors we developed a multi-step system, which utilized the LNCaP human prostate cancer cell line. LNCaP cells remain the only androgen receptor (AR)-positive prostate cancer cell line, that can be readily grown in tissue culture (Horoszewicz et al, 1983). These cells respond to androgens with increased cell proliferation and elevated expression of prostate specific antigen (PSA) (Berns et al, 1993). LNCaP cells at early passages are not only androgen-responsive, but also androgen- dependent (Pousette et al, 1997). This is similar to the situation in most tumours of prostatic cancer patients, which are initially highly responsive and dependent on androgens. […] Therefore, we employed LNCaP cells as a model for evaluating the effectiveness of our new inhibitors of androgen synthesis. In this study the compounds selected for evaluation were two groups of azolyl steroids. […] Here we report on the application of LNCaP-CYP17-transfected cells for determining the inhibitory potencies of the new compounds against the P450c17 enzyme. […] We designed and evaluated two groups of azolyl steroids: 5-non-competitive inhibitors (5NCIs), VN/63-1, VN/85-1, VN/87-1 and their corresponding 4 derivatives (4NCIs), VN/107-1, VN/108-1 and VN/109-1. The human P450c17 gene was transfected into LNCaP human prostate cancer cells, and the resultant LNCaP- CYP17 cells were utilized to evaluate the inhibitory potency of the new azolyl steroids. […] We further evaluated our inhibitors in male severe combined immuno- deficient mice bearing LNCaP tumour xenografts. […] We also utilized wild-type LNCaP prostatic carcinoma cells for evaluating the direct effects of new azolyl steroids on proliferation of these cells in vitro and in vivo. MATERIALS AND METHODS Materials The human prostate cancer cell line LNCaP was obtained from the American Type Culture Collection (Rockville, MD, USA). RPMI- 1640 medium, trypsin-EDTA (0.25%/0.02%), penicillin/strepto- mycin (P/S), geniticin (G418), and LipofectAMINE were from Gibco-BRL (Grand Island, NY, USA). Fetal bovine serum (FBS) was obtained from Summit Biotechnology Inc. (Fort Collins, CO, USA) and steroid-free FBS was prepared as described previously (Klus et al, 1996). Phenol red free IMEM and trypsin-versine were purchased from Biofluids Inc. (Rockville, MD, USA). Chloroform and acetonitrile were purchased from JT Baker, Inc (Phillipsburg, NJ, USA). Hydroxypropyl cellulose (HPC) was purchased from Sigma Chemical Co. (St Louis, MO, USA). The PSA enzyme- linked immunusorbent assay (ELISA) kit was from DSL Inc. (Webster, TX, USA). Matrigel was generously supplied by Dr Hynda Kleinman (NIH, Bethesda, MD, USA). Inhibitors of androgen synthesis: VN/63-1, VN/85-1, VN/87-1, VN/107-1, VN/108-1 and VN/109-1 were synthesized in our labo- ratory as previously described (Njar et al, 1998). […] Metribolone [17-methyl-3 H]-R1881 ([3 H]-R1881: specific activity 86 Ci mmol-1 ) was purchased from Dupont NEN (Boston, MA, USA).

LNCaP cells [3] = experiment: DHT-stimulated wild-type LNCaP cell growth; assay type: cell-based, human; details: 0.03 nM DHT, 9 days
From the text: as §1

serum DHT = experiment: Serum DHT (RIA) in SCID mice; assay type: in vivo, male SCID mice; details: Table 2, first experiment, 28 days of treatment, 50 mg kg-1 day-1; control 243.8
From the text: as §1

serum PSA = experiment: Serum PSA (ELISA) in LNCaP tumour-bearing SCID mice; assay type: in vivo, male SCID mice; details: first experiment, 50 mg kg-1 day-1, 28 days
From the text: Prostate cancer is the most common malignancy and the second leading cause of cancer-related deaths among men in the US and the UK (Shibata et al, 1998). […] Steroidal 17-hydroxylase/C17,20 -lyase (P450c17) (EC 1.14.99.0) was selected as the target enzyme for inhibition, as this is a key regulatory enzyme of androgen synthesis. P450c17 catal- yses two sequential reactions in the steroid biosynthetic pathway and converts pregnenolone and progesterone to the C-19 andro- gens, dehydroepiandrosterone and androstenedione respectively. This enzyme has an identical amino acid sequence in testicular and adrenal tissues (Chung et al, 1987). […] In order to evaluate the effectiveness of these inhibitors we developed a multi-step system, which utilized the LNCaP human prostate cancer cell line. LNCaP cells remain the only androgen receptor (AR)-positive prostate cancer cell line, that can be readily grown in tissue culture (Horoszewicz et al, 1983). These cells respond to androgens with increased cell proliferation and elevated expression of prostate specific antigen (PSA) (Berns et al, 1993). LNCaP cells at early passages are not only androgen-responsive, but also androgen- dependent (Pousette et al, 1997). This is similar to the situation in most tumours of prostatic cancer patients, which are initially highly responsive and dependent on androgens. […] Therefore, we employed LNCaP cells as a model for evaluating the effectiveness of our new inhibitors of androgen synthesis. In this study the compounds selected for evaluation were two groups of azolyl steroids. […] Here we report on the application of LNCaP-CYP17-transfected cells for determining the inhibitory potencies of the new compounds against the P450c17 enzyme. […] We designed and evaluated two groups of azolyl steroids: 5-non-competitive inhibitors (5NCIs), VN/63-1, VN/85-1, VN/87-1 and their corresponding 4 derivatives (4NCIs), VN/107-1, VN/108-1 and VN/109-1. The human P450c17 gene was transfected into LNCaP human prostate cancer cells, and the resultant LNCaP- CYP17 cells were utilized to evaluate the inhibitory potency of the new azolyl steroids. […] We further evaluated our inhibitors in male severe combined immuno- deficient mice bearing LNCaP tumour xenografts. […] We also utilized wild-type LNCaP prostatic carcinoma cells for evaluating the direct effects of new azolyl steroids on proliferation of these cells in vitro and in vivo. MATERIALS AND METHODS Materials The human prostate cancer cell line LNCaP was obtained from the American Type Culture Collection (Rockville, MD, USA). RPMI- 1640 medium, trypsin-EDTA (0.25%/0.02%), penicillin/strepto- mycin (P/S), geniticin (G418), and LipofectAMINE were from Gibco-BRL (Grand Island, NY, USA). Fetal bovine serum (FBS) was obtained from Summit Biotechnology Inc. (Fort Collins, CO, USA) and steroid-free FBS was prepared as described previously (Klus et al, 1996). Phenol red free IMEM and trypsin-versine were purchased from Biofluids Inc. (Rockville, MD, USA). Chloroform and acetonitrile were purchased from JT Baker, Inc (Phillipsburg, NJ, USA). Hydroxypropyl cellulose (HPC) was purchased from Sigma Chemical Co. (St Louis, MO, USA). The PSA enzyme- linked immunusorbent assay (ELISA) kit was from DSL Inc. (Webster, TX, USA). Matrigel was generously supplied by Dr Hynda Kleinman (NIH, Bethesda, MD, USA). […]

LNCaP androgen receptor = biological target: T1, LNCaP androgen receptor (Homo sapiens, UniProt P10275, T878A); experiment: Androgen receptor binding assay ([3H]R1881 displacement in LNCaP cells); details: from growth and binding results
T1 construct: endogenous in cells; host or cells: LNCaP (wild-type, untransfected)
T1 sequence (P10275 whole entry T878A): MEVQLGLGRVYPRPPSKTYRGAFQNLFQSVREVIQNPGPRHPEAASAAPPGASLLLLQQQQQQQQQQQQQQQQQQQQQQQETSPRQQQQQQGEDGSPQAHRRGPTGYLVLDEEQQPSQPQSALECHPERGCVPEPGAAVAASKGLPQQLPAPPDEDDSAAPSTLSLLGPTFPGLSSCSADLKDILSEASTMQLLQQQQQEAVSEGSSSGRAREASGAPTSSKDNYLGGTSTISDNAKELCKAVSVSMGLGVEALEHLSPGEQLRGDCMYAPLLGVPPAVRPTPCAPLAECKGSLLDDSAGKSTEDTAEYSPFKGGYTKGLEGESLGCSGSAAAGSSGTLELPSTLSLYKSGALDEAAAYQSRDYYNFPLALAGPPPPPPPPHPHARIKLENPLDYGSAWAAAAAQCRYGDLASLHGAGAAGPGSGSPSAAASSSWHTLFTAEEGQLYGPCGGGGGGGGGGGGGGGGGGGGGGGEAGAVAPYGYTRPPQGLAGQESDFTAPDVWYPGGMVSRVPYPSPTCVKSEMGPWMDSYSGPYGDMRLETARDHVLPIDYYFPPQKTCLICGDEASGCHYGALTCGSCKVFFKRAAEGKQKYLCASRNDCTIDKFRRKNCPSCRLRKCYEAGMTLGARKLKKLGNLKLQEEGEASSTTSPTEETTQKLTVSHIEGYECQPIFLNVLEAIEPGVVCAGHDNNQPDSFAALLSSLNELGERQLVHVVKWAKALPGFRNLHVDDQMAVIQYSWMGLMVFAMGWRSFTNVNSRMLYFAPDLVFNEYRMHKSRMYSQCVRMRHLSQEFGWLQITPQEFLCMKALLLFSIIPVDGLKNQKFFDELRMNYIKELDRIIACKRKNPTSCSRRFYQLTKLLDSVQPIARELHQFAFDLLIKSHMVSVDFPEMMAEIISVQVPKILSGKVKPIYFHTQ
From the text: Prostate cancer is the most common malignancy and the second leading cause of cancer-related deaths among men in the US and the UK (Shibata et al, 1998). […] Steroidal 17-hydroxylase/C17,20 -lyase (P450c17) (EC 1.14.99.0) was selected as the target enzyme for inhibition, as this is a key regulatory enzyme of androgen synthesis. P450c17 catal- yses two sequential reactions in the steroid biosynthetic pathway and converts pregnenolone and progesterone to the C-19 andro- gens, dehydroepiandrosterone and androstenedione respectively. This enzyme has an identical amino acid sequence in testicular and adrenal tissues (Chung et al, 1987). […] In order to evaluate the effectiveness of these inhibitors we developed a multi-step system, which utilized the LNCaP human prostate cancer cell line. LNCaP cells remain the only androgen receptor (AR)-positive prostate cancer cell line, that can be readily grown in tissue culture (Horoszewicz et al, 1983). […] We designed and evaluated two groups of azolyl steroids: 5-non-competitive inhibitors (5NCIs), VN/63-1, VN/85-1, VN/87-1 and their corresponding 4 derivatives (4NCIs), VN/107-1, VN/108-1 and VN/109-1. […] We further evaluated our inhibitors in male severe combined immuno- deficient mice bearing LNCaP tumour xenografts. […]

[4] = biological target: T2, human 17α-hydroxylase/C17,20-lyase (P450c17) expressed in LNCaP-CYP17 cells (Homo sapiens, UniProt P05093); experiment: [3H]-acetic acid releasing assay (AARA) with LNCaP-CYP17 cells; assay type: cell-based; details: LNCaP-CYP17 cells, 7 μM [21-3H]17-OHP5, 16 h; mean ± s.e.m., three experiments
T2 sequence (P05093 9-508 limits assumed): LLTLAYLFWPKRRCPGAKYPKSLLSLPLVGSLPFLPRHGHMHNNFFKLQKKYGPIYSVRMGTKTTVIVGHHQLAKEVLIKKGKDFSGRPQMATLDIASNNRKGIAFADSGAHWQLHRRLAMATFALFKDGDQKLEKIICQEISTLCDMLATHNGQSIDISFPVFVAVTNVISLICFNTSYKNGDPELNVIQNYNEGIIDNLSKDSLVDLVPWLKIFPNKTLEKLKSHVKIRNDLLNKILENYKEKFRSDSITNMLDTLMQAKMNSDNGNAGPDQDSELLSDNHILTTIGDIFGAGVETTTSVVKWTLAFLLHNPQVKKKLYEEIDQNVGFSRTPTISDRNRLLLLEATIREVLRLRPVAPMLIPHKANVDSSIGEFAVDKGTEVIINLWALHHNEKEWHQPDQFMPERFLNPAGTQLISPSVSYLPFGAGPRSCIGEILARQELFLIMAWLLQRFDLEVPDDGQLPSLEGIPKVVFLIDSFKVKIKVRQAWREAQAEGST

LNCaP tumour xenografts = experiment: LNCaP tumour xenograft growth in male SCID mice; assay type: in vivo; details: first experiment
From the text: as §1

LNCaP cells [5] = experiment: Testosterone-stimulated wild-type LNCaP cell growth; assay type: cell-based, human
From the text: as §1

SMILES: C[C@]12CCC(=O)C=C1CCC1C2CC[C@]2(C)C(n3ccnc3)=CCC12 (stereo partly drawn) [VN/108-1]
- IC50 [1]: 142 nM
- Effect on LNCaP cell growth in absence of androgens (LNCaP cells [2]): stimulated cell growth in absence of androgens
- Serum Testosterone (serum testosterone): 0.081 ng/mL
- Concentration that completely blocked DHT stimulation (LNCaP cells [3]): 5.0 µM
- Serum DHT (serum DHT): 122.1 pg/mL
- Serum PSA levels versus control (serum PSA): lowest levels of serum PSA; also recorded: significantly lower
- Character at LNCaP AR (LNCaP androgen receptor): partial agonist of LNCaP AR
- IC50 [4]: 2.96 ± 0.78 nM
- Inhibition of LNCaP tumour growth (tumour volume) (LNCaP tumour xenografts; 50 mg kg-1 day-1, 4 weeks): 9%
- Effect on tumour growth or tumour weights (LNCaP tumour xenografts; 50 mg kg-1 day-1, 28 days): no significant effects on tumour growth or tumour weights
- Concentration that completely inhibited the growth stimulatory effect of testosterone (LNCaP cells [5]; 0.1 nM testosterone, 9 days): 5 µM
- Effect on growth-stimulating effects of androgens (LNCaP cells [5]; wild-type LNCaP cells, testosterone or DHT): blocked the growth-stimulating effects of androgens
